One experiment concerns SC and TA inputs to CA1. The experiment can be described thus: Field potential recordings and LTP, acute hippocampal slices of injected mice. The class given is in vivo, wild-type mice. How it is done: Electrophysiology. Transverse [for Schaffer collateral (SC) input studies] or horizontal [for temporammonic (TA) input studies] hippocampal slices (400-μm thick) were prepared from adult mice. Slices were made using ice-cold dissection buffer (in mM: 212.7 sucrose, 2.6KCl, 1.23NaH2PO4, 10 dextrose, 3MgCl2 and 1CaCl2; 5% CO2/95% O2), and recordings were done in a submersion-type chamber perfused with artificial cerebrospinal fluid (ACSF, in mM: 124NaCl, 5KCl, 1.25NaH2PO4, 26NaHCO3, 10 dextrose, 1.5MgCl2, and 2.5CaCl2; 5% CO2/95% O2, 29.5-30.5° C., 2 ml/min). For field potential recordings, synaptic responses were evoked using 0.2 ms duration pulses delivered through a bipolar glass stimulating electrode at 0.0333 Hz. A train of TBS consisted of a burst of 4 pulses at 100 Hz repeated 10 times at 5 Hz. For 4× TBS, 4 trains of TBS were given at 10 sec inter-train-intervals. For whole cell recordings, slices were transferred to a submersion-type recording chamber mounted on a fixed stage of an upright microscope (E600 FN; Nikon, Tokyo, Japan) with IR oblique illumination. […]. These neurons were patched using a whole cell patch pipette (tip resistance 3-5 MΩ), which was filled with internal solution (in mM: 120 Cs-methanesulfonate, 5MgCl2, 8NaCl, 1 EGTA, 10 HEPES, 2 Mg.ATP, 0.5Na3GTP and 1 QX-314; pH 7.3, 280-290 mOsm). Recording was initiated 2-3 min after break-in, and each cell was recorded for 10-15 min to collect enough mEPSCs for analysis. The Axon patch-clamp amplifier 700B (Molecular Devices, Union City, Calif.) was used for voltage-clamp recordings. Cells were held at −70 mV, and the recorded mEPSC data were digitized at 10 kHz with a data acquisition board (National Instruments, Austin, Tex.) and acquired through custom-made programs using the Igor Pro software (WaveMetrics, Lake Oswego, Oreg.). The MiniAnalysis program (Synaptosoft, Decatur, Ga.) was used to analyze the acquired mEPSCs. The threshold for detecting mEPSCs was set at three times the root mean square (RMS) noise. […] Recordings were excluded from analysis if the RMS noise was <2, the series resistance was […], and input resistance was >100 MΩ. To minimize the impact of dendritic filtering, we adopted the standard approach of excluding mEPSCs with rise time >3 ms, as well as cells showing a negative correlation between mEPSC amplitude and rise time (Rall, 1969). Only about 4% of the total recorded cells (at most 1 cell per experimental group) were excluded due to negative correlation between mEPSC rise and amplitude. One hundred consecutive mEPSCs that met the rise time criteria were analyzed from each cell. AMPAR- and NMDAR-mediated currents were measured at −70 and +40 mV, respectively. AMPAR mediated EPSC amplitudes were measured at the peak of the current at −70 mV. NMDAR mediated EPSC amplitudes were measured 100 ms after the stimulation artifact. Data are means±SE. Student's t-test was used for two-group comparisons. For all statistical tests, P<0.05 was considered statistically significant.
Therefore, we examined whether improved cognitive performance following BTA-EG4 treatment is associated with altered synaptic function and plasticity. We conducted electrophysiology experiments in an acute hippocampal slice preparation from wild-type mice injected with BTA-EG4 (30 mg/kg, i.p.) or control solution (10% DMSO, i.p) for 2 weeks. […] Long-term potentiation (LTP) was either normal or reduced, depending on the induction protocol (FIGS. 3C-3D). […] There was also not a change in presynaptic function (FIG. 3I).

Experiment [1] relates to primary hippocampal neurons. The experiment can be described thus: Dendritic spine density in transfected primary hippocampal neurons. The format is cell-based, Sprague-Dawley rats. The conditions noted are these: 5 μM. How it is done: Primary neuron culture and immunostaining. Primary hippocampal neurons from E19 Sprague-Dawley rats were cultured at 150 cells/mm^2 as previously described (Pak et al., 2001). Neurons were transfected using Lipofectamine™ 2000 (Invitrogen, Carlsbad, Calif., USA) or calcium phosphate precipitation with GFP+PLL, GFP+APP shRNA, or GFP+APP and treated with BTA-EG4. The following antibodies were used: mouse anti-GFP (Novus Biologicals, 9F9.F9), rabbit anti-GFP (Invitrogen, A11122), rabbit anti-GluR1 (Calbiochem, PC246), mouse anti-GluR2 (BD Pharmagen, 556341), mouse anti-postsynaptic density (PSD)-95 (NeuroMabs, Davis, Calif., USA), mouse anti-Synaptophysin (Sigma Aldrich, s5768), rabbit APP N-terminal (Sigma-Aldrich, A8967), anti-Ras (BD Biosciences, 610001), anti-RasGRF1 (Santa Cruz, C-20; BD Biosciences, 610149), anti-ERK1/2 (Cell Signaling, 4695), anti-p-ERK1/2 (Invitrogen, 36880), anti-CREB (Cell Signaling, D76D11), anti-p-CREB (Millipore, 06-519), and mouse anti-c-Myc (Novus Biologicals, 9E10). Cultured hippocampal neuron images were acquired by LSM 510 laser scanning confocal microscope (Zeiss). Confocal zseries image stacks encompassing entire dendrite segments were analyzed using MetaMorph software (Universal Imaging Corporation, Downington, Pa., USA).
To examine whether BTA-EG4 acts through APP to increase dendritic spine density, we acutely knocked down APP using shRNA in primary hippocampal neurons. APP shRNA was cotransfected with GFP to visualize dendritic spines, and control cultures were transfected with GFP and PLL (control vector for shRNA construct). We then treated both cultures with BTA-EG4 (5 μM) or vehicle. […] To confirm this finding in vivo, we examined the effect of BTA-EG4 on dendritic spine density in APP knockout (KO) mice. APP-KO mice were injected with BTA-EG4 (30 mg/kg) or vehicle for 2 weeks, and Golgi analysis was conducted on hippocampal CA1 neurons.
To examine whether the effect of BTA-EG4 on dendritic spine formation is Ras dependent, primary hippocampal neurons were transfected with GFP and RasGRF1 shRNA, or GFP and PLL. After 24 h, we treated with BTA-EG4 (5 μM) or control for another 24 h, and spine density was measured using immunofluorescence. […] After 24 h, we then treated neurons with BTA-EG4 (5 μM) or control for 24 h, and spine density was measured. Ras-WT alone or combined with BTA-EG4 increased dendritic spine density compared with control (FIGS. 7K, 7L).

Setting [2] is: SC inputs to CA1, 30 mg/kg i.p., 2 weeks.

Turning to BTA-EG4, the “summation of synaptic responses during the LTP induction protocol” value with SC and TA inputs to CA1 (SC inputs to CA1) was “reduced”. Also, the “magnitude of LTP” value in the experiment on SC and TA inputs to CA1 (SC inputs to CA1, induced by 1× TBS) was “No difference”; in the experiment on SC and TA inputs to CA1 (SC inputs to CA1, induced by 4× TBS), “reduction”. In the experiment on SC and TA inputs to CA1 (setting [2]), the basal synaptic transmission entry is recorded as “did not alter”. The presynaptic function result with SC and TA inputs to CA1 (setting [2]) is listed as “did not alter”; with SC and TA inputs to CA1 (TA inputs to CA1), “not a change”. Also, the “response summation during the induction protocol” value in the experiment with SC and TA inputs to CA1 (TA inputs to CA1) was “absence of a change”. Also, the “synaptic transmission normalized to presynaptic fiber volley amplitude” value in the experiment on SC and TA inputs to CA1 (TA inputs to CA1) was “no difference”. Besides, the TA-LTP in the experiment on SC and TA inputs to CA1 (TA inputs to CA1, at 1 h post-LTP, CTRL 120±2.1%) is 109±1.2%. The “ability to recruit presynaptic axons per stimulation intensity” value in the experiment with SC and TA inputs to CA1 (TA inputs to CA1, 30 mg/kg i.p.) is on record as “reduced”. The dendritic spine density result was “significantly increased” in experiment [1] (24 h, GFP and PLL control vector); “prevented the effect” in experiment [1] (24 h, RasGRF1 knockdown); “increased” in experiment [1] (24 h, combined with Ras-WT, vs control); “could no longer increase” in experiment [1] (24 h, in the presence of RasN17); “prevented the increase” in experiment [1] (knockdown of APP (APP shRNA)).

These data come from patent publication US20160000762A1, “IMPROVING COGNITIVE FUNCTION” (THE REGENTS OF THE UNIVERSITY OF CALIFORNIA, priority 2013, published 2016).
